The subject of one assay is HIV1iiib in H9 cells. Kind of assay: Antiviral activity in H9 cells (acute HIV-1 infection, reverse transcriptase assay). Format: cell-based. The following applies: Human immunodeficiency virus 1, multiplicity of infection 0.01, 0.1% DMSO, read-out: Concentration for 50% Protection. As for the experimental part:
Using the general methods of Pauwels et al., (J. Virol. Methods, 16, 171-185, 1987) and Mann et al. (AIDS Research and Human Retroviruses, 253-255, 1989 (anti-viral assays of active HIV-1 infection were performed in the H9 cell line. Cultures were batch infected in 1 ml of RPM1 1640 media/10% fetal calf serum containing 10^5 infectious doses of HIV1iiib for an effective multiplicity of infection of 0.01. After 2 hours of viral absorption, cells were washed once and palted in 96-wellmicrotiter plates at a density of 10^4 cells per well. Test compounds were added to produce the desired concentration of drug and 0.1% DMSO in a final volume of 200 μl. Uninfected parallel cultures were maintained for XTT cytotoxicity assay at 7 days post infection. Cultures were tested for viral replication by reverse transcriptase assay at 4 and 7 days post infection.
As for `CC(C)CCC1(c2ccccc2)CC(O)=C(SCc2ccccc2-c2ccccc2)C(=O)O1` (racemic) [Example 95, 3-(Biphen-2-ylmethylthio)-5,6-dihydro-4-hydroxy-6-(3-methylbutyl)-6-phenyl-2H-pyran-2-one], the EC50 turned out to be 39 µM. Same read-out and setting: the value for `CC(C)CCC1(c2ccccc2)CC(O)=C(SCc2ccccc2Cl)C(=O)O1` (racemic) [Example 94, 3-(2-Chlorophenylmethylthio)-5,6-dihydro-4-hydroxy-6-(3-methylbutyl)-6-phenyl-2H-pyran-2-one] was 29 µM. Still for that read-out and setting: next, `O=C1OC(CCc2ccccc2)(c2ccccc2)CC(O)=C1Cc1ccccc1C(F)(F)F` (centres unmarked) [Example 114, 5,6-Dihydro-4-hydroxy-6-phenyl-6-(2-phenylethyl)-3-[(2-trifluoromethylphenyl)methyl]-2H-pyran-2-one]: 26 µM.

The same assay, now with this note: multiplicity of infection 0.01, 0.1% DMSO, read-out: Concentration for 50% Protection.
As to “5,6-Dihydro-4-hydroxy-3-[(3-methoxyphenyl)methyl]-6-phenyl-6-(2-phenylethyl)-2H-pyran-2-one [Example 119]”, the EC50 was 59 µM.

A further assay deals with T1, HIV-1 Protease (Human immunodeficiency virus type 1 group M subtype B, UniProt P04585).
T1 construct: HIV-1 Protease; purchased Bachem Bioscience Inc
The experiment in a line: HIV protease inhibition (undecapeptide substrate cleavage, HPLC). Format: biochemical. The following applies: 37° C., 5 min, 40 μM substrate, pH 4.7, 2% DMSO, read-out: 50% INHIBITION CONCENTRATION
The method, then:
1.0 mM dithiothreitol (DTT) was prepared fresh daily in 0.1% polyethylene glycol (mw 8000) 80 mM NaOAc, 160 mM NaCl, 1.0 mM EDTA, and brought to pH 4.7 with HCl.
The enzyme is obtained from Bachem Bioscience Inc. The undiluted enzyme is thawed from -80° C. and diluted 50-fold with DTT buffer. The solution is always kept at 0° C. on ice water and used in the experiment within 20 minutes after thawing.
Substrate III from Bachem Bioscience Inc. is the undecapeptide H-His-Lys-Ala-Arg-Val-Leu-p-Nitrophenylalanine-Glu-Ala-Norleucine-Ser-NH2 (>97% purity). A 200 μM stock solution in DTT buffer is prepared and stored on ice. Substrate solution is prepared fresh daily.
10 mM inhibitor (I) in dimethyl sulfoxide (DMSO) is diluted to 200 μM with DTT buffer. From the 200 μM stock solution is made a 10 μM stock solution with 2% DMSO in DTT buffer. The two inhibitor solutions are used to make final [I] =100, 50, 20, 10, 5, 2, 1, 0.5 and 0 μM with 2% DMSO in DTT buffer in each reaction well (total inhibitor volume of 50 μl).
To each reaction well is added 20 μl of substrate (final concentration of 40 μM), 50 μl of inhibitor (at a concentration such that final dilution will produce the test concentration) and 20 μl of DTT buffer. The reaction plate (96 wells) is incubated at 37° C. for at least 5 minutes.
10 μl of the diluted protease is added to the reaction well while the reaction plate is shaking. Once shaken for 10 seconds, the plate is returned to the heating block at 37° C. (final reaction volume 100 μl.)
The reaction is incubated for 5 minutes at 37° C. The reaction is stopped by placing the reaction plate on the shaker and adding 20 μl of 10% trifluoroacetic acid (TFA) and shaking for 10 seconds. The amount of proteolysis is then determined by separation of noncleaved substrate and two cleaved products with reverse-phase HPLC, while measuring absorbance at 220 nm to determine the relative peak areas of the three components. The relative peak areas are used to calculate % conversion to product as a function of inhibitor concentration. The data are plotted as % Control (the ratio of % conversion in the presence and absence of inhibitor×100) versus inhibitor concentration and fitted with the equation Y=100/1+(X/IC50)^A, where IC50 is the inhibitor concentration at 50% inhibition and A is the slope of the inhibition curve.
For `O=C1OC2(CCCc3ccccc32)CC(O)=C1SCc1ccccc1` (racemic) [Example 52, 3,4-Dihydro-4'-hydroxy-5'-[(phenylmethyl)thio]-spiro[naphthalene-1(2H),2'-[2H]pyran]-6'(3'H)-one], the IC50 was 2000 nM.

Take `Cc1cccc(SC2=C(O)CC(c3ccccc3)(c3ccccc3)OC2=O)c1` [Example 70, 5,6-Dihydro-4-hydroxy-3-(3-methylphenylthio)-6,6-diphenyl-2H-pyran-2-one]: the IC50 was 110 nM. On to `CC(C)CCC1(c2ccccc2)CC(O)=C(SCc2ccccc2-c2ccccc2)C(=O)O1` (racemic) [Example 95, 3-(Biphen-2-ylmethylthio)-5,6-dihydro-4-hydroxy-6-(3-methylbutyl)-6-phenyl-2H-pyran-2-one], for which the IC50 is 1090 nM. With `O=C1OC(c2ccc(OCc3ccccc3)cc2)CC(O)=C1SCCc1ccccc1` (centres unmarked) [Example 14], the IC50 stood at 2500 nM.

For the compound `O=C1OC(c2ccccc2)(c2ccccc2)CC(O)=C1SCc1ccccc1` [Example 37, 5,6-Dihydro-4-hydroxy-6,6-diphenyl-3-[(phenylmethyl)thio]-2H-pyran-2-one], the IC50 is 260 nM.

As for `O=C1OC(c2ccccc2)CC(O)=C1SCCc1ccccc1` (racemic) [Example 2, 5,6-Dihydro-4-hydroxy-6-phenyl-3-[(2-phenylethyl)thio]-2H-pyran-2-one], the IC50 stood at 1900 nM. As for `O=C1OC(CCc2ccccc2)(c2ccccc2)CC(O)=C1SCc1ccccc1-c1ccccc1` (racemic) [Example 92, 3-(Biphenyl-2-ylmethylthio)-5,6-dihydro-4-hydroxy-6-phenyl-6-(2-phenylethyl)-2H-pyran-2-one], the IC50 is 270 nM. `CC(C)CCC1(c2ccccc2)CC(O)=C(Sc2ccccc2C(C)C)C(=O)O1` (racemic) [Example 75, 5,6-Dihydro-4-hydroxy-6-(3-methylbutyl)-6-phenyl-3-(2-isopropyl-phenylthio)-2H-pyran-2-one]: the IC50 was 28 nM. Turning to `O=C1OC(CCc2ccccc2)(c2ccccc2)CC(O)=C1Sc1ccccc1` (racemic) [Example 71, 5,6-Dihydro-4-hydroxy-6-phenyl-6-(2-phenylethyl)-3-phenylthio-2H-pyran-2-one], the IC50 came out at 100 nM. The same measure, in the same setting: the value for `CC(C)CCC1(c2ccccc2)CC(O)=C(SCc2ccccc2Cl)C(=O)O1` (racemic) [Example 94, 3-(2-Chlorophenylmethylthio)-5,6-dihydro-4-hydroxy-6-(3-methylbutyl)-6-phenyl-2H-pyran-2-one] was 220 nM. Consider `CC(C)CCC1(c2ccccc2)CC(O)=C(SCc2ccccc2)C(=O)O1` (racemic) [Example 35, 5,6-Dihydro-4-hydroxy-6-(3-methylbutyl)-6-phenyl-3-[(phenylmethyl)thio]-2H-pyran-2-one], for which the IC50 worked out at 120 nM. On the same count and under the same terms, next, `O=C(CCCC1(c2ccccc2)CC(O)=C(SCc2ccccc2)C(=O)O1)NCc1ccccc1` (racemic) [Example 61, N-Benzyl-4-(3,6-dihydro-4-hydroxy-6-oxo-2-phenyl-5-[(phenylmethyl)thio]-2H-pyran-2-yl)butyramide]: 220 nM. Same read-out and setting: next, `CCCCC1(c2ccc(-c3ccccc3)cc2)CC(O)=C(SCCc2ccccc2)C(=O)O1` (racemic) [Example 22, 6-[1,1'-Biphenyl]-4-yl-6-butyl-5,6-dihydro-4-hydroxy-3-[(2-phenylethyl)thio]-2H-pyran-2-one]: 1100 nM; `O=C1OC(CC2CCCC2)(c2ccccc2)CC(O)=C1SCc1ccccc1` (racemic) [Example 50, 6-Cyclopentylmethyl-5,6-dihydro-4-hydroxy-6-phenyl-3-[(phenylmethyl)thio]-2H-pyran-2-one]: 88 nM; `O=C1OC(c2ccccc2)(c2ccccc2)CC(O)=C1CCCc1ccccc1` [Example 66, 5,6-Dihydro-4-hydroxy-6,6-diphenyl-3-(3-phenylpropyl)-2H-pyran-2-one]: 390 nM. On to `O=C1OC(c2ccccc2)(c2ccncc2)CC(O)=C1SCCc1ccccc1` (racemic) [Example 57, 5,6-Dihydro-4-hydroxy-6-phenyl-3-[(2-phenylethyl)thio]-6-pyridin-4-yl-2H-pyran-2-one], for which the IC50 was 650 nM. `Cc1ccc(C)c(CSC2=C(O)CC(CCc3ccccc3)(c3ccccc3)OC2=O)c1` (racemic) [Example 90, 5,6-Dihydro-4-hydroxy-3-[(2,5-dimethylphenyl)methylthio]-6-phenyl-6-(2-phenylethyl)-2H-pyran-2-one]: the IC50 came to 140 nM. On the same count and under the same terms, the value for `O=C1OC(CCc2ccccc2)(c2ccccc2)CC(O)=C1Cc1ccccc1C(F)(F)F` (centres unmarked) [Example 114, 5,6-Dihydro-4-hydroxy-6-phenyl-6-(2-phenylethyl)-3-[(2-trifluoromethylphenyl)methyl]-2H-pyran-2-one] was 79 nM; that for `O=C1OC(CCc2ccccc2)(c2ccccc2)CC(O)=C1SCc1ccccc1` (racemic) [Example 39, 5,6-Dihydro-4-hydroxy-6-phenyl-6-(2-phenylethyl)-3-[(phenylmethyl)thio]-2H-pyran-2-one] was 50 nM. On the same count and under the same terms, the value for `CC(C)CC1(c2ccccc2)CC(O)=C(SCc2ccccc2)C(=O)O1` (racemic) [Example 5, 5,6-Dihydro-4-hydroxy-6-(2-methylpropyl)-6-phenyl-3-[(phenylmethyl)thio]-2H-pyran-2-one] was 400 nM; that for “5,6-Dihydro-4-hydroxy-3-[(3-methoxyphenyl)methyl]-6-phenyl-6-(2-phenylethyl)-2H-pyran-2-one [Example 119]” was 97 nM. Same read-out and setting: next, `O=C(O)CCCCC1(c2ccccc2)CC(O)=C(SCCc2ccccc2)C(=O)O1` (racemic) [Example 56, 5-(3,6-Dihydro-4-hydroxy-6-oxo-2-phenyl-5-[(2-phenylethyl)thio]-2H-pyran-2-yl)pentanoic acid]: 5 nM; `CCCCC1(c2ccccc2)CC(O)=C(SCc2ccccc2)C(=O)O1` (racemic) [Example 29, 6-Butyl-5,6-dihydro-4-hydroxy-6-phenyl-3-[(phenylmethyl)thio]-2H-pyran-2-one]: 260 nM. In the case of `O=C1OC(CCc2ccc(Cl)c(Cl)c2)(c2ccccc2)CC(O)=C1SCc1ccccc1` (racemic) [Example 44, 6-[2-(3,4-Dichlorophenyl)ethyl]-5,6-dihydro-4-hydroxy-6-phenyl-3-[(phenylmethyl)thio]-2H-pyran-2-one], the IC50 came out at 320 nM. Still for that read-out and setting: next, `O=C1OC(CCc2ccccc2)(c2ccccc2)CC(O)=C1SCCc1ccccc1` (racemic) [Example 40, 5,6-Dihydro-4-hydroxy-6-phenyl-6-(2-phenylethyl)-3-[(2-phenylethyl)thio]-2H-pyran-2-one]: 60 nM.

(Values after patent publication US5789440A, “5,6-dihydropyrone derivatives as protease inhibitors and antiviral agents” (Warner-Lambert Company, priority 1994, dated 1998).)
